Measured values taken from patent publication US20110301046A1, “Methods of Determining Efficacy of Glucocorticoid Treatment of Eosinophilic Esophagitis” (Children's Hospital Medical Center, priority 2008, published 2011).

Key:
FKBP51 transcripts = assay: Whole genome microarray analysis of esophageal biopsy samples from EE patients treated with swallowed FP; type: in vivo, human; details: esophageal biopsies
From the text: FIG. 1 depicts the identification of glucocorticoid-regulated genes in EE patients that respond to FP treatment. (A) Analysis of microarray data to identify glucocorticoid-regulated transcripts. RNA from distinct patient populations was subjected to chip analysis using Affymetrix Human Genome U 133 Plus 2.0 GeneChips®. The groups are composed of the following numbers of patients: normal (NL), n=14; EE, n=14; EE, FP responders (EE R), n=13; EE, FP non-responders, n=8. Using the average expression for each patient group, the subset of genes differentially regulated between normal (NL) and EE patients was identified by t-test (p<0.01). The subset of genes differentially regulated between normal patients and EE patients that respond to FP (EE R) was then identified by 2-fold change filter. Subsequently, the subset of genes differentially regulated between NL and EE patients was subtracted from those differentially regulated between NL and EE R. These transcripts were then subjected to ANOVA, p<0.01. […] The average expression level for each patient group (normal, EE, Flovent® (fluticasone propionate) responders, Flovent® non-responders) is expressed as fold-change compared to the normal patients. […] The transcript levels for the indicated gene for each patient population was quantified by real-time PCR and normalized to glyceraldehyde-3-phosphate dehydrogenase (GAPDH) levels. […]

[1] = system: FKBP51, KRT7, H19 transcripts; assay: Real-time PCR analysis of glucocorticoid-regulated genes in patient esophageal biopsies; type: in vivo, human
From the text: FIG. 2 depicts the verification of transcript levels of glucocorticoid-regulated genes by real-time PCR analysis. (A) Microarray data for three glucocorticoid-regulated genes. The average expression level for each patient group (normal, EE, Flovent® (fluticasone propionate) responders, Flovent® non-responders) is expressed as fold-change compared to the normal patients. (B) Real-time PCR analysis for three glucocorticoid-regulated genes. The transcript levels for the indicated gene for each patient population was quantified by real-time PCR and normalized to glyceraldehyde-3-phosphate dehydrogenase (GAPDH) levels. […] The expression pattern of three of the identified candidate genes was validated by real-time PCR analysis.

[2] = system: FKBP51 transcript in peripheral blood mononuclear cells; assay: FKBP51 induction in PBMCs cultured ex vivo, real-time PCR; type: cell-based, human; details: all FP concentrations tested, 24 h, normalized to GAPDH
Procedure: (§1) FIG. 3 depicts FKBP51 induction following glucocorticoid treatment. (A) Peripheral blood mononuclear cells (PBMCs) were isolated from a patient blood sample and cultured ex vivo. The cells were treated with the indicated concentration of FP for 24 h. RNA was isolated, cDNA synthesis was performed, and real-time PCR analysis was conducted. FKBP51 transcript levels were normalized to GAPDH levels. (B) Primary esophageal epithelial cells were cultured from the biopsy of an EE patient with active disease. Cells were treated or not with 10^−6 M FP for 24 h. Protein extracts were prepared and subjected to SDS-PAGE and western blot analysis for FKBP51 and actin (left). FKBP51 and actin levels were quantified by densitometry analysis. The ratio of FKBP51 to actin is shown (right). (C) TE-7 cells were treated with the indicated dose of FP for 24 h. Protein extracts were then prepared and subjected to SDS-PAGE and western blot analysis for FKBP51 and actin (top). Densitometry analysis was performed and the fold-change in the ratio of FKBP51 to actin expression is graphed (bottom). (D) TE-7 cells were treated for the indicated amount of time with 10^−7 M FP. RNA was isolated, cDNA synthesis was performed, and real-time PCR analysis to detect FKBP51 and GAPDH transcripts was done (left). […]

[3] = system: FKBP51 protein in primary esophageal epithelial cells; assay: FKBP51 protein in primary esophageal epithelial cells from an EE patient, western blot; type: cell-based, human; details: 10^-6 M FP, 24 h, FKBP51 to actin ratio
Procedure: as §1

FKBP51 in TE-7 cells = assay: FKBP51 induction in TE-7 esophageal cell line, western blot and real-time PCR; type: cell-based
Procedure: FIG. 3 depicts FKBP51 induction following glucocorticoid treatment. (A) Peripheral blood mononuclear cells (PBMCs) were isolated from a patient blood sample and cultured ex vivo. The cells were treated with the indicated concentration of FP for 24 h. RNA was isolated, cDNA synthesis was performed, and real-time PCR analysis was conducted. FKBP51 transcript levels were normalized to GAPDH levels. (B) Primary esophageal epithelial cells were cultured from the biopsy of an EE patient with active disease. Cells were treated or not with 10^−6 M FP for 24 h. Protein extracts were prepared and subjected to SDS-PAGE and western blot analysis for FKBP51 and actin (left). FKBP51 and actin levels were quantified by densitometry analysis. The ratio of FKBP51 to actin is shown (right). (C) TE-7 cells were treated with the indicated dose of FP for 24 h. Protein extracts were then prepared and subjected to SDS-PAGE and western blot analysis for FKBP51 and actin (top). Densitometry analysis was performed and the fold-change in the ratio of FKBP51 to actin expression is graphed (bottom). (D) TE-7 cells were treated for the indicated amount of time with 10^−7 M FP. RNA was isolated, cDNA synthesis was performed, and real-time PCR analysis to detect FKBP51 and GAPDH transcripts was done (left). In a separate experiment, protein extracts were prepared and then subjected to SDS-PAGE and western blot analysis for FKBP51 and actin (right, top). Following densitometry analysis, the fold-change in the ratio of FKBP51 to actin signal was graphed (right, bottom)*, p<0.05; **, p<0.01. To further study the role of FKBP51 in epithelial cells, the TE-7 esophageal cell line was used to understand the expression patterns of FKBP51 following FP treatment. […] The kinetics of FKBP51 Mrna and protein expression were examined following FP treatment. […] Similarly, FKBP51 protein levels in TE-7 cells increased in a time dependent manner, with maximum levels of protein observed by 24 h following treatment.

[4] = system: eotaxin-3 transcript in TE-7 cells; assay: IL-13-induced eotaxin-3 transcript levels in TE-7 cells, real-time PCR; type: cell-based; details: IL-13 100 ng/ml, 24 h
Procedure: (§2) FIG. 4 depicts IL-13 induced transcript levels of two representative genes are reversed by FP treatment. TE-7 cells were treated as indicated with IL-13 (100 ng/ml) and/or the indicated dose of FP for 24 h. RNA was isolated and cDNA synthesis was performed. Transcript levels of eotaxin-3 (A) and serpinb4 (B) were determined by real-time PCR analysis and normalized to GAPDH levels. *, p<0.05; **, p<0.01.
(§3) IL-13 signaling in esophageal epithelial cells is known to have a role in EE pathogenesis by inducing the EE transcriptome. […] When TE-7 cells are treated with IL-13, an increase in eotaxin-3 and serpinb4 transcript levels is observed (FIG. 4A, B).

[5] = system: serpinb4 transcript in TE-7 cells; assay: IL-13-induced serpinb4 transcript levels in TE-7 cells, real-time PCR; type: cell-based; details: IL-13 100 ng/ml, 24 h
Procedure: as §2, §3

eotaxin-3 promoter = assay: Eotaxin-3 promoter luciferase reporter in transfected TE-7 cells, dual luciferase assay; type: cell-based
Procedure: FIG. 5 depicts increased baseline FKBP51 levels impact glucocorticoid repression of IL-13-induced eotaxin-3 promoter activity. (A) Schematics of constructs used in this study. GRE, glucocorticoid response element. CMV, cytomegalovirus promoter. (B) Cells were transfected with Phrl-TK, pEotaxin-3, and Pcdna3.1 or Pfkbp51. Cells were then treated with IL-13 ([…]) and/or FP (10^−6 M) for 24 h. Protein lysates were then collected, and firefly and Renilla luciferase activity for each sample were quantified by dual luciferase assay (Promega). Eotaxin-3 promoter activity is expressed as the ratio of firefly to Renilla luciferase activity. **, p<0.01; ***, p<0.001.
(§4) Cells were transfected with Phrl-TK and pEotaxin-3 (A) or pEotaxin-3 3′UTR (B) for 48 h. Cells were then treated with IL-13 (100 ng/ml) and/or FP (10^−6 M) for 24 h. Protein lysates were then collected, and firefly and Renilla luciferase activity for each sample was quantified by dual luciferase assay (Promega). Eotaxin-3 promoter activity is expressed as the ratio of firefly to Renilla luciferase activity. **, p<0.01.
(§5) The contribution of the promoter and 3′ UTR sequences of eotaxin-3 to the control of its gene expression following IL-13 and FP treatment, was tested using TE-7 cells transiently transfected with a luciferase reporter construct. The cells were transfected with a luciferase reporter construct containing either 800 bp of the eotaxin-3 promoter 5′ of the firefly luciferase gene in the Pg13-Basic vector or a plasmid containing 200 bp of the eotaxin-3 3′ UTR downstream of the firefly luciferase gene in the Pg13-Promoter vector (FIG. 5A). The same cells were co-transfected with a plasmid containing Renilla luciferase under a constitutive promoter (Phrl-TK) that served as a control for transfection efficiency. Part of the observed decrease in IL-13 induced eotaxin-3 Mrna levels following FP treatment can be mediated through modulation of the promoter activity due to the presence of a putative glucocorticoid-responsive element (GRE) in this region (FIG. 5A).
To test whether increased FKBP51 levels impacted the FP-mediated decrease in IL-13-induced eotaxin-3 promoter activity, TE-7 cells were transfected with either empty vector (Pcdna3.1) or an expression construction that contained FKBP51 under the control of the CMV promoter (Pfkbp51, FIG. 5A) to simulate high baseline levels of FKBP51. […] However, when cells were transfected with the FKBP51 expression vector, the FP-mediated decrease in IL-13 induced eotaxin-3 promoter activity was abolished (FIG. 5B).

eotaxin-3 3' UTR = assay: Eotaxin-3 3' UTR luciferase reporter in transfected TE-7 cells, dual luciferase assay; type: cell-based; details: IL-13 100 ng/ml and/or FP 10^-6 M, 24 h, FIG. 6B
Procedure: as §4, §5

[6] = average, FIG. 2B, real-time PCR

Molecule	increase in FKBP51 transcripts in FP-responders compared to control and active EE individuals (FKBP51 transcripts) [fold]	FKBP51 levels in FP responders compared to normal patients [1, 6] [fold]	FKBP51 transcript levels in FP non-responder patients compared to normal patients [1, 6] [fold]	FKBP51, KRT7 and H19 transcript levels in FP responder patients compared to untreated patients ([1]; microarray and real-time PCR)	FKBP51 transcript levels in isolated PBMCs [2]	increase in FKBP51 protein in primary esophageal epithelial cells [3]	FKBP51 transcript levels in TE-7 cells over time (FKBP51 in TE-7 cells; 10^-7 M FP, real-time PCR)	time of maximum FKBP51 protein levels in TE-7 cells (FKBP51 in TE-7 cells; 10^-7 M FP, western blot) [h]	FKBP51 protein levels in TE-7 cells in response to FP dose (FKBP51 in TE-7 cells; various doses of FP, 24 h, western blot)	IL-13 mediated increase in eotaxin-3 transcript levels on concomitant FP treatment ([4]; indicated doses of FP)	IL-13 mediated increase in serpinb4 transcript levels on concomitant FP treatment ([5]; indicated doses of FP)	FP-mediated decrease in IL-13 induced eotaxin-3 promoter activity in cells transfected with FKBP51 expression vector (eotaxin-3 promoter; FKBP51 expression vector, IL-13 10 ng/ml, FP 10^-6 M, 24 h, FIG. 5B)	reduction of FP-mediated inhibition of IL-13-induced eotaxin-3 expression by FKBP51 overexpression (eotaxin-3 promoter; FKBP51 overexpression in TE-7 cells) [%]	IL-13-induced eotaxin-3 promoter activity upon concomitant FP treatment (eotaxin-3 promoter; IL-13 100 ng/ml, FP 10^-6 M, 24 h, FIG. 6A)	reduction of IL-13-induced eotaxin-3 promoter activity by concomitant FP (eotaxin-3 promoter; empty vector, IL-13 10 ng/ml, FP 10^-6 M, 24 h, FIG. 5B) [%]	modulation of mRNA stability via eotaxin-3 3' UTR sequence (eotaxin-3 3' UTR)	eotaxin-3 transcript levels on IL-13 treatment ([4]; TE-7 cells)	serpinb4 transcript levels on IL-13 treatment ([5]; TE-7 cells)	increase in eotaxin-3 promoter activity upon IL-13 treatment (eotaxin-3 promoter; empty vector, IL-13 10 ng/ml, 24 h, FIG. 5B) [fold]
CCC(=O)O[C@]1(C(=O)SCF)[C@H](C)C[C@H]2[C@@H]3C[C@H](F)C4=CC(=O)C=C[C@]4(C)[C@@]3(F)[C@@H](O)C[C@@]21C [FP, S-fluoromethyl-6α,9-difluoro-11β-hydroxy-16α-methyl-3-oxoandrosta-1,4-diene-17β-carbothioate, 17-propionate]	4	4	1.5	increased transcript levels	significant increase	approximately 3 fold	increased by 4 h post treatment and were further increased by 8 h, after which no further increase was observed	≤ 24	dose-dependent increase	decreased in a dose-dependent manner	decreased in a dose-dependent manner	abolished	50	decrease	50	did not show any modulation			
IL-13: cytokine used to induce eotaxin-3 and serpinb4 in TE-7 esophageal epithelial cells																did not show any modulation	increase	increase	2
